Laboratory results taken from patent publication US20240041842A1, “PHARMACEUTICAL COMPOSITION FOR INHIBITING CANCER METASTASIS” (INDUSTRY-ACADEMIC COOPERATION FOUNDATION, YONSEI UNIVERSITY, priority 2021, published 2024).

How the values were obtained:
[1] = system: Snail; assay: Western blot of Snail protein; type: cell-based, human; settings: for Snail expression levels: BAPTA or calmidazolium for 1 hour; for Snail: BMS303141 24 hours, NDI-091143 24 hours, SB-204990 2 hours; for Snail expression: H2O2 or NAC for 6 hours
Method: (§1) Cells were harvested, washed with PBS, and lysed on ice with RIPA buffer containing protease and phophatase inhibitor cocktail (GenDEPOT). After 15 minutes of incubation, the cell lysates were centrifuged at 15,000 rpm at 4° C. for 10 minutes. Protein concentration was measured by Bradford assay (Bio-rad, 500-0006). Equal amounts of total protein were placed on an SDS gel electrophoresis and transferred to a PVDF membrane (Bio-rad). The membrane was blocked with 5% skim milk for 1 hour at room temperature and incubated overnight at 4° C. with primary antibody in a buffer containing 0.1% Tween-20. Subsequently, the membrane was washed three times with Tween-PBS buffer and incubated for 1 hour at room temperature using a secondary antibody diluted in blocking buffer containing 0.1% Tween-20. Subsequently, the membrane was washed three times for 10 minutes each using Tween-TBS. Densitometry of Western blots was measured using ImageJ software.
[…] For autophagy activation, cells were'treated with 2 μM rapamycin (Selleckchem, S1039) for 5 hours. Modulation of intracellular ROS was performed with N-acetyl-cysteine (10 mM) (Sigma, A7250), hydrogen peroxide solution (100 μM to 200 μM) (Sigma, 216763), or CDDO-ME NRF2 activator (50 nM, 100 nM) (Sellckchem, S8078) for 4 to 24 hours. Intercellular calcium signal control was performed for 1 hour using BAPTA-AM (20 μM) (Sigma, A1076) or Calmidazolium Chloride (2.5 μM) (Sigma, C3930). […] For TFEB protein phosphorylation, tacrolimus (1 μM) (Selleckchem, S5003) was treated for 1 hour. […] During siRNA treatment, each siRNA was treated to a concentration of 40 to 50 nM and treated together with Lipofectamine RNAiMax (Thermo Fisher Scientific, 13778150) for transformation, and were used for experiments 48 to 72 hours later. For cDNA treatment, each cDNA was treated to a concentration of 1 to 2 μg in a 6-well plate and treated with Lipofectamine 2000 (Thermo Fisher Scientific, 11668019) for transformation, and were used for experiments 24 hours later.

[2] = system: phospho-AMPK T172; assay: Western blot of phospho-AMPK T172; type: cell-based, human; settings: HBEC-KL cell line; for AMPK phosphorylation: BAPTA or calmidazolium for 1 hour; for AMPK phosphorylation at T172: H2O2 or NAC for 6 hours
Method: as §1
For inhibition of autophagy, cells were treated with 50 μM chloroquine (Sigma, C6628) for 12 to 24 hours. For autophagy activation, cells were'treated with 2 μM rapamycin (Selleckchem, S1039) for 5 hours. Modulation of intracellular ROS was performed with N-acetyl-cysteine (10 mM) (Sigma, A7250), hydrogen peroxide solution (100 μM to 200 μM) (Sigma, 216763), or CDDO-ME NRF2 activator (50 nM, 100 nM) (Sellckchem, S8078) for 4 to 24 hours. Intercellular calcium signal control was performed for 1 hour using BAPTA-AM (20 μM) (Sigma, A1076) or Calmidazolium Chloride (2.5 μM) (Sigma, C3930). C646 (25 μM) (Sigma, SML0002), curcumin (10 μM) (Selleckchem, S1848) CBP/p300 inhibitor or vorinostat ([…]) (Selleckchem, S1047) HDAC inhibitor was treated for 24 hours to modulate snail protein acetylation. and CHIR99021 GSK3b inhibitor (3 μM) (Sigma, SML1046) was treated for 24 hours to control Snail protein phosphorylation. For TFEB protein phosphorylation, tacrolimus (1 μM) (Selleckchem, S5003) was treated for 1 hour. […] During siRNA treatment, each siRNA was treated to a concentration of 40 to 50 nM and treated together with Lipofectamine RNAiMax (Thermo Fisher Scientific, 13778150) for transformation, and were used for experiments 48 to 72 hours later. For cDNA treatment, each cDNA was treated to a concentration of 1 to 2 μg in a 6-well plate and treated with Lipofectamine 2000 (Thermo Fisher Scientific, 11668019) for transformation, and were used for experiments 24 hours later.

[3] = system: HBEC-KL cell line; assay: Matrigel invasion assay, HBEC-KL cell line; type: cell-based, human; settings: HBEC-KL; 50 uM BMS303141 24 hours, 1 um NDI-091143 24 hours, 20 uM SB-204990 2 hours
Method: For the 2D invasion assay, the inserts were pre-coated with 300 μg/ml Matrigel (Coming, 354234). After staining with […] dye (Bio-Rad, 1450013), 1×10^5 live cells per 8-um-pore cell-culture insert (Costar. 3422) were seeded in 0.5% ACL medium. 10% ACL medium was added to the outside of the insert. In the case of lung cancer and pancreatic cancer cell lines, after inoculation in 1% RPMI medium, 20% RPMI medium was added to the outside of the insert. Plates were incubated for 24 hours at 37° C. After incubation, the insert was fixed with 3.7% PFA, washed, stained with 0.4% crystal violet, and the upper membrane was washed and dried.

[4] = system: A549-luc cells; assay: A549-luc tail vein injection metastasis model; type: in vivo; settings: nude mice; 100 mg/kg, qd p.o 20 consecutive days
Method: FIG. 13E illustrates role of STO-609 on cancer metastasis in an A549-luc tail vein injection model. After intravenous injection of A549-luc cells into nude mice, vehicle or STO-609 (25 mg/kg and 100 mg/kg qd) was injected for 28 days starting one day after the injection. A picture taken of a bioluminescent image when 4 weeks have elapsed after injection is shown (above). Analysis results of the total metastasis burden by photonic flux are shown (below). FIG. 13H illustrates the role of BMS303141 on cancer metastasis in an A549-luc tail vein injection model. A549-luc cells were intravenously injected into nude mice, and then vehicle or BMS303141 (100 mg/kg q.d.) was injected for 20 days starting one day after the injection. A bioluminescence image when 3 weeks have elapsed after injection is shown. 7- to 9-week-old BALB/c-nu Sic mice were obtained from SLC, Inc. (Shizuoka, Japan) and used, A549-luc cells (#JCRB1414) or SNAI1 shRNA-mediated knockdown A549-luc cells were injected at 3-4.5×10^6 cells through the tail vein of mice. After 3 to 4 weeks, metastasis was monitored by bioluminescence imaging analysis. More specifically, after injecting D-luciferin (75 mg/kg) (PerkinElmer, 122799) into the abdominal cavity of the mouse, images were obtained using an IVIS imaging system (IVIS 200, PerkinElmer, Waltham, MA, USA) in the supine position. Lung tissue was obtained for histopathological analysis. Images were analyzed using commercially available software (ImageScope; Aperio Technologies). In the STO-609 efficacy test, STO-609 (25 mg, 100 mg/kg/day) was orally administered to mice on the day of injection. In the BMS303141 efficacy test, BMS303141 (100 mg/kg/day) was orally administered to mice on the day of injection.

[5] = system: Snail; assay: Immunoprecipitation-immunoblot of phosphorylated/acetylated or K48 polyubiquitinated Snail in A549 cells; type: cell-based, human; settings: 25 uM C646 or 3 uM SAHA
Method: FIG. 9K illustrates the immunoprecipitation-immunoblot result of phosphorylated/acetylated or K48 polyubiquitinated Snail assay after transfection of wild-type Snail (pFLAG-Snail WT) or acetylation-defective Snail mutant (pFLAG-SnailK146R) into A549 cells and/or treatment with 25 uM C646.
FIG. 9L illustrates the immunoprecipitation-immunoblot results of the polyubiquitinated Snail assay after transfection of HA-ubiquitin and wild-type Snail (pFLAG-Snail WT) or acetylation-defective Snail mutant (pFLAG-SnailK146R) into A549 cells and/or treatment with 25 uM C646 for 2 hours (left) and/or treatment of 3 uM SAHA for 5 hours (right).
(§2) For immunoprecipitation, equal amounts of lysate and Co-IP buffer (40 mM HEPES, pH 7.4, 120 mM NaCl, 2 mM EDTA, 0.3% CHAPS (Sigma, 10810118001), 10 mM pyrophosphate (Sigma, 221368), 10 mM glycerophosphate (Sigma, G9422), 50 mM NaF, phosphatase and protease inhibitor mixture) were mixed. Cell lysates (1 μg protein) were incubated overnight at 4° C. on anti-FLAG® M2 Affinity Gel (Sigma, A2220) or anti-acetyl-lysine antibody coated agarose (ImmuneChem Pharmaceuticals, ICP0388). The immunoprecipitate was then washed three times in IP buffer, and the immunoprecipitated complex was dissolved and separated by boiling in IP buffer for 5 minutes.

[6] = system: TFEB (CLEAR network); assay: CLEAR motif-driven luciferase reporter assay; type: cell-based, human; settings: HBEC-KL; 1 uM FK506, 1 hour
Method: To compare the TFEB reporter activity with other cell lines (HBEC30KT, HBEC-K, and HBEC-KL), the pGL4.70 5× CLEAR Rluc and pSt4.14 Fluc vectors were transiently co-transfected and normalized luciferase activity was measured in Dual-Measured by Luciferase® Reporter Assay System (Promega, E1910),

[7] = system: TFEB; assay: Western blot / immunoprecipitation-immunoblot of TFEB (acetylated, phosphorylated, total); type: cell-based, human; settings: HBEC-KL; 1 uM FK506, 1 hour
Method: FIG. 11J illustrates a diagram of immunoblot results of the […] a control (left), and the immunoprecipitation-immunoblot result of TFEB acetylated HBEC-KL cells under the same conditions (right) is also shown,
as §1, §2

[8] = system: LC3; assay: Autophagic flux (LC3 Western blot, mRFP-GFP-LC3 lysosomal delivery assay); type: cell-based, human; settings: HBEC-KL cell line; NAC or 50 uM STO-609, 24 hours
Method: as §1, with “Representative GFP-LC3, RFP-LC3 and overlapping images are shown. In addition, red puncta (mRFP+/GFP−) and yellow puncta (mRFP+/GFP+) per cell were quantified and graphed (n=15 cells/treatment). Cells” for “Cells”

[9] = HBEC-KL cell line, 20 nM bortezomib

O=C(O)CN(CC(=O)O)c1ccccc1OCCOc1ccccc1N(CC(=O)O)CC(=O)O [BAPTA]
Snail expression levels ([1]; HBEC-KL cell line): reduced | AMPK phosphorylation [2]: reduced

COc1ccc(-c2ccccc2)cc1NS(=O)(=O)c1cc(Cl)cc(Cl)c1O [BMS303141]
Snail ([1]; HBEC-KL): reduced | Matrigel invasion [3]: reduced | total degree of metastasis [4]: reduced

CC1=NN(c2ccc(C(=O)O)cc2)C(=O)/C1=C\c1ccc(-c2cc(C)c(C)cc2[N+](=O)[O-])o1 [C646]
K48 polyubiquitination of wild-type Snail ([5]; pFLAG-Snail WT): increased | phosphorylation of wild-type Snail ([5]; pFLAG-Snail WT): increased | phosphorylation and acetylation of K146R Snail ([5]; pFLAG-SnailK146R): did not affect

COC(=O)[C@]12CCC(C)(C)C[C@H]1[C@H]1C(=O)C=C3[C@@]4(C)C=C(C#N)C(=O)C(C)(C)[C@@H]4CC[C@@]3(C)[C@]1(C)CC2 [CDDO-ME]
level of phospho-AMPK T172 ([2]; CDDO-ME for 24 hours): reduced

C=CC[C@@H]1/C=C(\C)C[C@H](C)C[C@H](OC)[C@H]2O[C@@](O)(C(=O)C(=O)N3CCCC[C@H]3C(=O)O[C@H](/C(C)=C/[C@@H]3CC[C@@H](O)[C@H](OC)C3)[C@H](C)[C@@H](O)CC1=O)[C@H](C)C[C@@H]2OC [FK506, tacrolimus]
CLEAR activity [6]: decreased | phospho-TFEB [7]: increasing

OO [H2O2, hydrogen peroxide]
Snail expression ([1]; HBEC-KL cell line): increased | AMPK phosphorylation at T172 [2]: increased

CC(=O)N[C@@H](CS)C(=O)O [NAC, N-acetyl-cysteine]
Snail expression ([1]; HBEC-KL cell line): decreased | autophagic flux [8]: decreased | AMPK phosphorylation at T172 [2]: decreased

COC(=O)c1cc(Cl)c(O)c(S(=O)(=O)Nc2cc(-c3ccccc3)c(F)cc2F)c1 [NDI-091143]
Snail ([1]; HBEC-KL): reduced | Matrigel invasion [3]: reduced

O=C(O)C[C@@]1(O)C[C@@H](CCCCCCc2ccc(Cl)cc2Cl)OC1=O [SB-204990]
Snail ([1]; HBEC-KL): reduced | Matrigel invasion [3]: reduced

CC(C)C[C@H](NC(=O)[C@H](Cc1ccccc1)NC(=O)c1cnccn1)B(O)O [bortezomib]
reduction of Snail by STO-609, with bortezomib also treated [1, 9]: restored | reduction of Snail by chloroquine (CQ), with bortezomib also treated [1, 9]: restored | Snail reduction caused by the ACLY inhibitor, with Bortezomib ([1]; HBEC-KL, 20 nM bortezomib for 3 hours): restored

Clc1ccc(C(c2ccc(Cl)cc2)n2cc[n+](CC(OCc3ccc(Cl)cc3Cl)c3ccc(Cl)cc3Cl)c2)cc1 (stereo not shown) [calmidazolium]
Snail expression levels ([1]; HBEC-KL cell line): reduced | AMPK phosphorylation [2]: reduced
